pIC50: −log10 of the molar value. Where “and” joins values, the source holds several entries; their conditions need not be identical. Equal entries are not always repeated.

The subject of data set [1] is C26 colon carcinoma tumors. Briefly: In vivo tumor regression, syngeneic C26 model. Also noted: species or system BALB/c mice. The settings on record: 20 mg Dox Equiv.kg^−1 BW. Here is the method:
(§1) In vivo tumor regression For in vivo tumor implantation, C26 cells at 5×10^5 cells in 30 μL Minimum Essential Medium (MEM) (Invitrogen, Carlsbad, CA) and MIA PaCa-2 cells at 2×10^6 cells in 50 μL 10:90 v/v MEM: Matrigel matrix (Corning Inc, Corning, New York) were inoculated in the right flank of normal and athymic nude BALB/c mice, respectively. Tumor cells were allowed to grow until the tumor volume, calculated as π/6×length×width^2, reached 75-100 mm^3 for C26 tumors and 100-125 mm^3 for MIA PaCa-2 tumors. Tumor bearing mice were then treated with ABD-Dox at 10 and 20 mg Dox Equiv.kg^−1 BW, AlDox at 20 mg Dox Equiv.kg^−1 BW, and free Dox at 10 mgkg^−1 BW. Tumor volumes and body weights were monitored for 100 days after treatment and mice displaying excessive tumor volume (>[…]), body weight loss (>15%), or ill health were euthanized. Tumor growth and survival data were analyzed by GraphPad Prism software. Survival curves were generated with the Kaplan-Meier method and compared with the log-rank (Mantel-Cox) test. Tumor growth data were compared with a paired one-way ANOVA followed by Tukey-Kramer (Tukey's) post-hoc test. P<0.05 was considered as statistically significant.
(§2) For in vivo tumor regression studies, a single dose of ABD-Dox was injected via tail vein at 10 mg Dox Equiv.kg^−1 BW (MTD of free Dox) and 20 mg Dox Equiv.kg^−1 BW (MTD of ABD-Dox) in separate cohorts of BALB/c mice with s.c. C26 tumors or nude mice with s.c. MIA Paca-2 tumors. Free Dox was injected at its MTD of 10 mgkg-1 BW, and AlDox was injected at 20 mg Dox Equiv.kg^−1 BW, a dose that was reported to be safe in previous studies. All animals were injected when the tumors were 75-100 mm; in size for C26 tumors and 100-125 mm^3 for MIA PaCa-2 tumors.

The test system of data set [2] is MIA PaCa-2 pancreatic tumor xenografts. The data set is described as follows: In vivo tumor regression, MIA PaCa-2 xenograft model. Also noted: species or system nude BALB/c mice. Here is the method: as §1, §2
A further data set can be described thus: Aqueous solubility. The class given is physicochemical. The procedure: To remove the ELP160 tag, the KEKE-ELP160-srt-ABD-Dox conjugate was buffer exchanged into sortase reaction buffer, and was reacted with (His)6-sortase A-ELP40 in the presence of a 50 fold molar excess of triglycine (FIG. 2A). The efficiency of the sortase reaction, defined as the percent conversion of ELP-ABD-Dox substrate to ABD-Dox, was determined by size exclusion HPLC and was calculated to be ≥85% (FIG. 3A). The ABD-Dox product was then separated from (His)6-sortase A-ELP40, the cleaved KEKE-ELP160 tag, and unreacted KEKE-ELP160-srt-ABD-Dox in the sortase reaction solution by preparative size exclusion chromatography (SEC). The number of Dox molecules conjugated per ABD (Dox/ABD molar ratio) was measured before the sortase reaction by dissolving the lyophilized KEKE-ELP160-srt-ABD-Dox conjugate in PBS and calculating the moles of KEKE-ELP160-srt-ABD-Dox and Dox gravimetrically and spectrophotometrically at 488 nm, respectively. 3-4 Dox molecules were attached to each KEKE-ELP160-srt-ABD-(CGG)8. However, following removing the ELP160 tag, the resulting ABD-Dox conjugate was too hydrophobic and insoluble in pH 7.4 PBS because of the high number of conjugated Dox molecules. […] Formulation of AlDox in acidic pH, however, is undesirable as it can trigger the premature, in vitro degradation of the hydrazone bond between Dox and EMCH, converting AlDox back to free Dox.

Data set [3] in a line: Dose-escalation study, maximum tolerated dose. Type of data set: in vivo, BALB/c mice. Particulars: i.v., healthy BALB/c mice, two weeks; no mortality or body weight loss greater than 15%. The procedure: With these encouraging biodistribution results in hand, tumor regression in vivo by ABD-Dox was investigated. The maximum tolerated dose (MTD) of ABD-Dox was established in healthy mice. A range of doses of ABD-Dox were injected into healthy BALB/c mice, and body weight loss and mortality of the mice were monitored over a two-week period to assess systemic toxicity. […] Using these criteria, the MTD was determined to be 20 mg Dox Equiv.kg^−1 for ABD-Dox (FIG. 7) and 10 mgkg^−1 BW MTD of free Dox (FIG. 8).

The subject of data set [4] is AsPC-1 pancreatic cancer cells. The data set is described as follows: In vitro cytotoxicity (MTS, 72 h) AsPC-1. Type of data set: cell-based, human. Particulars: 72 h incubation, Dox Equiv. concentration. The procedure:
(§3) In vitro cytotoxicity C26 murine colon carcinoma cells and three different pancreatic cancer cell lines, BxPC-3, AsPC-1, and MIA PaCa-2, were used to study the in vitro cytotoxicity of ABD-DOX and Dox. Cells were cultured and grown as monolayers at 37° C. with C02 in a humidified incubator and were passaged at ˜80% confluency using 0.05% trypsin-EDTA (Invitrogen, Carlsbad, CA). C26, BxPC-3, AsPC-1, and MIA PaCa-2 cells were seeded in 96-well plates (5,000 cells/well) and incubated overnight. Three-fold serial dilutions of drug were then added to the wells in triplicate and also to control wells (media with no cells) to correct for the background Dox absorbance. After 72 h treatment, 20 μL MTS reagent was added to each well and was incubated for 3 h at 37° C., and the absorbance at 490 nm was measured using a Victor3 plate reader (Perkin Elmer, Boston, MA). Cell viability (%) was defined as the percentage of the absorbance of the drug-treated cells relative to buffer-treated cells and IC50 values were determined using logistic non-linear regression analysis with GraphPad Prism software. The IC50 was defined as the Dox Equiv. concentration of formulations resulting in 50% growth inhibition compared with a negative control, buffer-treated cells.

The subject of a further data set is MIA PaCa-2 cells. Briefly: In vitro cytotoxicity (MTS, 72 h) MIA PaCa-2. The class given is cell-based, human. The settings on record: 72 h incubation, Dox Equiv. concentration. Here is the method: as §3
A short description of data set [5]: Tissue biodistribution in C26 tumor-bearing BALB/c mice. Type of data set: in vivo. An excerpt:
The tissue concentration of Dox.

Data set [6] is described as follows: Intravenous pharmacokinetics in healthy BALB/c mice. Here is the method:
Pharmacokinetics and biodistribution Pharmacokinetics and biodistribution experiments were performed to study the concentration of ABD-Dox in blood and tissues over time following intravenous (i.v.) administration. For the pharmacokinetic study, ABD-Dox and Dox in PBS and AlDox in 10 mM sodium phosphate, 5% D-(+)-glucose, pH 5.8 were injected at 5 mg Dox Equiv. per kg of body weight (BW) into healthy BALB/c mice. 10 μL blood samples were collected at 40 s, 15 min and 30 min, and 2, 4, 8, 24, 48, 72 and 96 h post injection and were diluted into heparinized PBS (1 kUmL^−1), and centrifuged at 4,000 rcf, 10 min, 4° C. to collect the plasma. 10 μL of the plasma samples were then diluted in 490 μL of acidified isopropanol (0.075 M HCl, 10% water) and incubated overnight at 4° C. For the biodistribution study, ABD-Dox and Dox in PBS were injected at 5 mg Dox Equiv.kg^−1 BW into C26 tumor-bearing BALB/c mice. At 2 h, 24 h, and 72 h post-injection, mice were sacrificed and tumor, heart, lung, liver, spleen, kidney and muscle tissues were dissected, weighed, homogenized in acidified isopropanol using a Mini-Beadbeater (Biospec, Bartlesville, OK) with 2 mm diameter zirconia beads for 1-2 min, and were incubated overnight at 4° C. Following overnight incubation in acidified isopropanol, plasma and tissue samples were centrifuged at 16,000 rcf, 4° C. for 10 min and the supernatants were loaded onto black 96-well plates in duplicate and the Dox fluorescence was measured using on a Victor3 microplate reader (Perkin Elmer, Waltham, MA) with fluorescence excitation at 485 nm and emission at 590 nm. Tissues were also dissected from three untreated mice, processed in the same manner, serially diluted, and loaded on the plates to prepare a standard curve of fluorescence intensity versus the weight for each tissue from which the background tissue fluorescence was calculated and subtracted for each sample. Serial dilution of free Dox in acidified isopropanol was used as standard to quantify the Dox concentration as […] per liter of plasma (μM) and as the percent of the injected dose per gram (% ID g^−1) in the tumor and other tissues. Plasma concentrations of Dox Equiv. of ABD-Dox versus time were fit to a two-compartment model using SAAM II software (SAAM Institute, Seattle, WA) and the elimination half-life and the area-under-curve were computed. The tissue concentration of Dox. Equiv. of ABD-Dox and free Dox at each time point were compared in GraphPad Prism software (GraphPad, San Diego, CA) by Student's t-test with P<0.05 considered statistically significant.

Data set [7] concerns BxPC-3 pancreatic cancer cells. Briefly: In vitro cytotoxicity (MTS, 72 h) BxPC-3. The settings on record: 72 h incubation, Dox Equiv. concentration. Type of data set: cell-based, human. The procedure: as §3
Data set [8] deals with C26 murine colon carcinoma cells. The data set is described as follows: In vitro cytotoxicity (MTS, 72 h) C26. Type of data set: cell-based. Particulars: 72 h incubation, Dox Equiv. concentration. Here is the method: as §3

For `COc1cccc2c1C(=O)c1c(O)c3c(c(O)c1C2=O)C[C@@](O)(/C(CO)=N/NC(=O)CCCCCN1C(=O)C=CC1=O)C[C@@H]3O[C@H]1C[C@H](N)[C@H](O)[C@H](C)O1` [AlDox, Aldoxorubicin, reference compound], in data set [1], the “eradication of C26 tumors” value is on record as “incomplete eradication”, the “mice that did not survive over the 100-day course of study” value was found to be 25% and the “recurrence of the primary tumor” value was “without recurrence of the primary tumor in any mice”. The “mice showing tumor disappearance” value in [2] (by day 15 after treatment, 20 mg Dox Equiv.kg^−1 BW) is on record as 50%. Also, the “tumor recurrence in tumor-eradicated mice” value in data set [2] (by day 50, 20 mg Dox Equiv.kg^−1 BW) is “all”. In the data set “Aqueous solubility”, the “concentration at which acidic pH is required for solubility in aqueous solutions” value was ≥ 0.5 mg Dox Equiv.mL^−1. In addition, in “Aqueous solubility” (physiological pH), the “solubility” value is recorded as “poor solubility”.

What is called pIC50 is the IC50 on a negative log10 scale, so that one unit is a factor of ten. With `COc1cccc2c1C(=O)c1c(O)c3c(c(O)c1C2=O)C[C@@](O)(C(=O)CO)C[C@@H]3O[C@H]1C[C@H](N)[C@H](O)[C@H](C)O1` [free Dox, Doxorubicin, reference compound], the “maximum tolerated dose (MTD)” value in [3] is 10 mgkg^−1 BW. For the same molecule, the pIC50 in [4] was 5.60; with MIA PaCa-2 cells, 7.40; in [7], 6.40; in data set [8], 6.30 and 6.29. Moreover, the “concentration of Dox equivalent in tumor” value in [5] (2 h after administration) came out at 1.6 % ID.g^−1. Further, in [5] (over 72 h), the minimum tumor accumulation is recorded as 0.07 % ID.g^−1. For the same molecule, the “concentration in blood relative to initial concentration” value in data set [6] (15 min after i.v. injection) is listed as “less than 2%”. Further, in data set [6] (i.v., 5 mg Dox Equiv. per kg BW), the “in vivo elimination half-life” value is reported as “on the order of minutes”.

The values above are taken from patent US12296018B2, “Albumin binding peptide-drug (AlBiPeD) conjugates and methods of making and using same” (priority 2018, dated 2025).
